Read-outs that look alike come from different tables or passages of the source.
Tests used:
[1] = test system: 3D7-strain P. falciparum asexual parasites; test: P. falciparum asexual growth inhibition assay (Pf GIA); assay type: cell-based, Plasmodium falciparum; details: dose response confirmation; read-out: Pf asexual growth inhibition assays IC50
Summary of the method: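 LDH readout: absorbance at 650 nm after 10 min at room temperature with lactate/APAD/NBT/diaphorase mix on thawed plates. Cultures (0.25% parasitemia, 2% hematocrit) were treated 72 h at 37°C in low-oxygen gas. Inhibition was normalised to 50 μM chloroquine and DMSO; n=3 biological replicates.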

[2] = test system: P. berghei ookinete development; details: for % inhibition, Replicate A / % inhibition, Replicate B: primary screen at 1 μM
[3] = test system: HepG2 cells; test: HepG2 cytotoxicity assay; details: for IC50: read-out: HepG2 cytotoxicity assay IC50, dose response confirmation; for Pb ODA (this manuscript) HepG2 cytoxicity: HepG2 cytotoxicity listed with the Pb ODA data set (this manuscript)
Summary of the method: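 Percent inhibition derived from fluorescent viability readout, normalised to DMSO (negative) and 50 μM doxorubicin (positive). Compound incubation lasted 48 h at 37°C, 5% CO2, with 2,500 HepG2 cells/well in MEM plus 10% FBS and 1% NEAA.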

[4] = read-out: Pb ODA IC50, this manuscript
[5] = read-out: Pb Ookinete development assay IC50, dose response confirmation
[6] = HepG2 values of the three screens unified
[7] = read-out: Pb ODA (this manuscript) IC50, P. berghei ookinete development assay, this manuscript
[8] = unified HepG2 value across the three screens

In the case of COc1ccc2ncc(C#N)c(CCN3CCC(NCc4ccc5c(n4)NC(=O)CS5)CC3)c2n1.Cl [TCMDC-135188], the IC50 [1] is reported as 2370 nM, the “Is compound selective in assay? Pb ODA active?” value (shortened to “Is compound selective”) ([2]; 1: YES, 0: NO) is reported as 1 (1: YES) and the “% inhibition, Replicate A” value [2] is reported as 67.48%. For the same compound, the “% inhibition, Replicate B” value [2] was 73.91%, the IC50 [2, 4] was 770 nM and the IC50 [2, 5] was 768 nM. The “HepG2 cytoxicity (Pb ODA, this manuscript)” value [3] was 54.95 µM, the Unified cytotox [3, 6] was 54.95 µM and the IC50 [3] was 55000 nM.

For COc1c(C)[nH]c(C)c(-c2ccc(Oc3cccc(C(F)(F)F)c3)cc2)c1=O [TCMDC-135253], the IC50 [1] was 937 nM, the “Is compound selective” value [2] was 0 (key: 1: YES; 0: NO) and the “% inhibition, Replicate A” value [2] was 56.53%. The “% inhibition, Replicate B” value [2] was 75.40%, the IC50 [2, 7] was 3600 nM and the IC50 [2, 5] was 3600 nM. For the same compound, the “Pb ODA (this manuscript) HepG2 cytoxicity” value [3] was 1.30 µM and the IC50 [3] was 1300 nM.

With Cc1[nH]c(C)c(-c2ccc(OCc3ccc(OC(F)(F)F)cc3)nc2)c(=O)c1Br [TCMDC-135254] the IC50 [1] was 122 nM, the “Is compound selective” value ([2]; 1: YES, 0: NO) was 1 (1: YES) and the “% inhibition, Replicate A” value [2] was 57.86%. The “% inhibition, Replicate B” value [2] was 80.15%, the IC50 [2, 4] was 1680 nM and the IC50 [2, 5] was 1680 nM. For the same compound, the “HepG2 cytoxicity (Pb ODA, this manuscript)” value [3] was 87.10 µM, the Unified cytotox [3, 6] was 87.10 µM and the IC50 [3] was 87100 nM.

With Cc1[nH]c(C)c(-c2ccc(OCc3ccc(OC(F)(F)F)cc3)nc2)c(=O)c1Cl [TCMDC-135271] the IC50 [1] was 67 nM, the “Is compound selective” value ([2]; 1: YES, 0: NO) was 1 (1: YES) and the “% inhibition, Replicate A” value [2] was 71.19%. For the same compound, the “% inhibition, Replicate B” value [2] was 76.52%, the IC50 [2, 4] was 1070 nM and the IC50 [2, 5] was 1070 nM. For the same compound, the Unified cytotox [3, 6] was 100.00 µM and the IC50 [3] was 100000 nM.

For COc1cc(NC2=C(c3ccccc3)C(=O)c3ccccc32)ccn1 [TCMDC-135283], the IC50 [1] was 286 nM, the “Is compound selective” value [2] was 1 (key: 1: YES; 0: NO) and the “% inhibition, Replicate A” value [2] was 80.47%. The “% inhibition, Replicate B” value [2] was 74.75%, the IC50 [2, 7] was 740 nM and the IC50 [2, 5] was 743 nM. For the same compound, the “Pb ODA (this manuscript) HepG2 cytoxicity” value [3] was 100.00 µM and the IC50 [3] was 100000 nM.

With CCNC(=O)Nc1ccc(-c2cnc(N)c(-c3nc4ccc(OC)cc4[nH]3)c2)cc1 [TCMDC-135321] the IC50 [1] was 364 nM, the “Is compound selective” value ([2]; 1: YES, 0: NO) was 0 (0: NO) and the “% inhibition, Replicate A” value [2] was 44.00%. For the same compound, the “% inhibition, Replicate B” value [2] was 70.87%, the IC50 [2, 4] was 2330 nM and the IC50 [2, 5] was 2330 nM. For the same compound, the IC50 [3] was 6680 nM and the “Unified cytotox” value [3, 8] was 6.68 µM.

COc1ccc2nc(-c3cc(-c4ccc(NC(=O)C(C)C)cc4)cnc3N)[nH]c2c1 [TCMDC-135322] was tested, and the IC50 [1] was 277 nM, the “Is compound selective” value ([2]; 1: YES, 0: NO) was 1 (1: YES) and the “% inhibition, Replicate A” value [2] was 29.63%. The “% inhibition, Replicate B” value [2] was 78.93%, the IC50 [2, 4] was 420 nM and the IC50 [2, 5] was 423 nM. The IC50 [3] was 8610 nM and the “Unified cytotox” value [3, 8] was 8.61 µM.

In the case of COc1ccc2nc(-c3cc(-c4ccc(NC(C)=O)cc4)cnc3N)[nH]c2c1 [TCMDC-135365], the IC50 [1] is reported as 1280 nM, the “Is compound selective” value ([2]; 1: YES, 0: NO) is reported as 1 (1: YES) and the “% inhibition, Replicate A” value [2] is reported as 88.78%. For the same compound, the “% inhibition, Replicate B” value [2] was 104.70%, the IC50 [2, 4] was 440 nM and the IC50 [2, 5] was 442 nM. For the same compound, the IC50 [3] was 12000 nM and the “Unified cytotox” value [3, 8] was 12.02 µM.

In the case of COc1cc(F)c2ncc(C#N)c(CCN3CCC(NCc4ccc5c(c4)OCCO5)CC3)c2c1.Cl [TCMDC-135367], the IC50 [1] is reported as 640 nM, the “Is compound selective” value ([2]; 1: YES, 0: NO) is reported as 1 (1: YES) and the “% inhibition, Replicate A” value [2] is reported as 88.34%. The “% inhibition, Replicate B” value [2] was 59.17%, the IC50 [2, 4] was 2170 nM and the IC50 [2, 5] was 2170 nM. For the same compound, the IC50 [3] was 38900 nM and the “Unified cytotox” value [3, 8] was 38.90 µM.

For Cc1cc(SC(C)(C)C)cc2c(Cl)c(C(N)=O)cnc12 [TCMDC-135415], the IC50 [1] was 69 nM, the “Is compound selective” value ([2]; 1: YES, 0: NO) was 0 (0: NO) and the “% inhibition, Replicate A” value [2] was 28.78%. The “% inhibition, Replicate B” value [2] was 60.54%, the IC50 [2, 4] was 2710 nM and the IC50 [2, 5] was 2710 nM. The IC50 [3] was 1360 nM and the “Unified cytotox” value [3, 8] was 1.36 µM.

In the case of Cc1[nH]c2ccc(-c3ccccc3)cc2c(=O)c1Br [TCMDC-135426], the IC50 [1] is reported as 136 nM, the “Is compound selective” value ([2]; 1: YES, 0: NO) is reported as 1 (1: YES) and the “% inhibition, Replicate A” value [2] is reported as 84.59%. The “% inhibition, Replicate B” value [2] was 99.51%, the IC50 [2, 4] was 1250 nM and the IC50 [2, 5] was 1250 nM. The IC50 [3] was 100000 nM and the “Unified cytotox” value [3, 8] was 100.00 µM.

In the case of C=Cc1ccc(-c2c(C)[nH]c(C)c(Br)c2=O)cc1 [TCMDC-135433], the IC50 [1] is reported as 433 nM, the “Is compound selective” value [2] is reported as 1 (key: 1: YES; 0: NO) and the “% inhibition, Replicate A” value [2] is reported as 31.67%. For the same compound, the “% inhibition, Replicate B” value [2] was 64.44%, the IC50 [2, 7] was 1240 nM and the IC50 [2, 5] was 1240 nM. For the same compound, the “Pb ODA (this manuscript) HepG2 cytoxicity” value [3] was 57.54 µM and the IC50 [3] was 57500 nM.

CCCCc1ccc(-c2ccc3[nH]c(C)c(Br)c(=O)c3c2)cc1 [TCMDC-135463] was tested, and the IC50 [1] was 77 nM, the “Is compound selective” value ([2]; 1: YES, 0: NO) was 0 (0: NO) and the “% inhibition, Replicate A” value [2] was 56.53%. The “% inhibition, Replicate B” value [2] was 70.28%, the IC50 [2, 4] was 2990 nM and the IC50 [2, 5] was 3000 nM. For the same compound, the IC50 [3] was 10000 nM and the “Unified cytotox” value [3, 8] was 10.00 µM.

With COc1ccc2ncc(F)c(CCN3CCC(NCc4ccc5c(c4)CCO5)CC3)c2n1.Cl [TCMDC-135491] the IC50 [1] was 879 nM, the “Is compound selective” value [2] was 0 (key: 1: YES; 0: NO) and the “% inhibition, Replicate A” value [2] was 14.40%. For the same compound, the “% inhibition, Replicate B” value [2] was 53.74%, the IC50 [2, 7] was 3390 nM and the IC50 [2, 5] was 3390 nM. The “Pb ODA (this manuscript) HepG2 cytoxicity” value [3] was 31.62 µM and the IC50 [3] was 31600 nM.

For O=C(NCC1CC1)C1CCN(C(c2ccc(Cl)cc2)c2ccc(Cl)cc2)CC1 [TCMDC-135522], the IC50 [1] was 305 nM, the “Is compound selective” value ([2]; 1: YES, 0: NO) was 1 (1: YES) and the “% inhibition, Replicate A” value [2] was 38.16%. For the same compound, the “% inhibition, Replicate B” value [2] was 71.31%, the IC50 [2, 5] was 1590 nM and the IC50 [3] was 100000 nM. The “Unified cytotox” value [3, 8] was 100.00 µM.

With Cc1[nH]c(C)c(-c2ccc(Nc3ccc(C(F)(F)F)cn3)cc2)c(=O)c1Br [TCMDC-135546] the IC50 [1] was 14 nM, the “Is compound selective” value [2] was 1 (key: 1: YES; 0: NO) and the “% inhibition, Replicate A” value [2] was 85.12%. For the same compound, the “% inhibition, Replicate B” value [2] was 90.38%, the IC50 [2, 5] was 5.45 nM and the “Pb ODA (this manuscript) HepG2 cytoxicity” value [3] was 0.98 µM. It also gave an IC50 [3] of 980 nM.

Cc1[nH]c(C)c([N+](=O)[O-])c(=O)c1-c1ccc(Oc2ccc(OC(F)(F)F)cc2)cc1 [TCMDC-135555] was tested, and the IC50 [1] was 177 nM, the “Is compound selective” value [2] was 1 (key: 1: YES; 0: NO) and the “% inhibition, Replicate A” value [2] was 67.14%. For the same compound, the “% inhibition, Replicate B” value [2] was 51.32%, the IC50 [2, 7] was 2810 nM and the IC50 [2, 5] was 2810 nM. For the same compound, the “Pb ODA (this manuscript) HepG2 cytoxicity” value [3] was 100.00 µM and the IC50 [3] was 100000 nM.

For COc1cc(F)c2ncc(Cl)c(CCN3CCC(NCc4ccc5c(c4)NC(=O)CS5)CC3)c2c1.Cl [TCMDC-135620], the IC50 [1] was 15 nM, the “Is compound selective” value ([2]; 1: YES, 0: NO) was 1 (1: YES) and the “% inhibition, Replicate A” value [2] was 131.37%. The “% inhibition, Replicate B” value [2] was 63.52%, the IC50 [2, 4] was 470 nM and the IC50 [2, 5] was 467 nM. For the same compound, the IC50 [3] was 10600 nM and the “Unified cytotox” value [3, 8] was 10.59 µM.

COc1cc(F)c2ncc(Cl)c(CCN3CCC(NCc4ccc5c(n4)NC(=O)CO5)CC3)c2c1.Cl [TCMDC-135621] was tested, and the IC50 [1] was 2590 nM, the “Is compound selective” value [2] was 1 (key: 1: YES; 0: NO) and the “% inhibition, Replicate A” value [2] was 69.33%. The “% inhibition, Replicate B” value [2] was 64.08%, the IC50 [2, 5] was 1270 nM and the “Pb ODA (this manuscript) HepG2 cytoxicity” value [3] was 27.23 µM. For the same compound, the IC50 [3] was 27200 nM.
